In patent US9108923B2, “Compounds, compositions, and methods for cancer therapy” (The Broad Institute, Inc., priority 2012, dated 2015):
Where two headings read alike, the source gives them in different places.

Tests used:
HeLa = experiment: ATP Assay (CellTiter-Glo), cellular ATP levels as surrogate for cell viability; format: cell-based, human; details: cellular ATP levels, 48 h, read-out: EC50 HeLa
Method: (§1) ATP Assay. […] At that time, media was removed and replaced with a solution of CellTiter-Glo reagent (Promega) in PBS. After ten minutes, luminescence was read using an EnVision multilabel plate reader (Perkin-Elmer) and signal intensity was calculated relative to in-plate DMSO control wells.
(§2) We next sought to determine the performance of the synthetic analogs relative to PL in cells. […] As a second assay, effects of compound treatments on ATP levels, a surrogate for cell viability, were measured after 48 hours.
(§3) Assays were performed in 384-well plates on two human cancer cell lines, H1703 (lung) and HeLa (cervix).

H1703 = experiment: as above; format: cell-based, human; details: cellular ATP levels, 48 h, read-out: EC50 H1703
Method: as §1, §2, §3

[1] = Homo sapiens, NCI-H1703, Table 2
[2] = Homo sapiens, NCI-H1703, Table 1

COc1ccc(C2CC=CC(=O)N2C(=O)/C=C/c2cc(OC)c(OC)c(OC)c2)cc1 (stereo not drawn) [compound 9]
EC50 (HeLa; Homo sapiens, HeLa, Table 2): 7 µM
EC50 (H1703; [1]): 4 µM

COc1cc(/C=C/C(=O)N2CCC=CC2=O)cc(OC)c1OCCN(CCOc1c(OC)cc(/C=C/C(=O)N2CCC=CC2=O)cc1OC)CCOc1c(OC)cc(/C=C/C(=O)N2CCC=CC2=O)cc1OC [compound 41]
EC50 (HeLa; Homo sapiens, HeLa, Table 2): 0.3 µM
EC50 (H1703; [1]): 0.1 µM

O=Cc1ccc(/C=C/C(=O)N2CCC=CC2=O)cc1 [compound 14]
EC50 (HeLa; Homo sapiens, HeLa, Table 2): 8 µM
EC50 (H1703; [1]): 5 µM

COc1cc(/C=C/C(=O)N2CCC=C(C)C2=O)cc(OC)c1OC [compound 3, (E)-3-methyl-1-(3-(3,4,5-trimethoxyphenyl)prop-2-enoyl)-5,6-dihydropyridin-2(1H)-one]
EC50 (HeLa; Homo sapiens, HeLa, Table 1): > 20 µM
EC50 (HeLa; Table 2): > 20 µM
EC50 (H1703; [2]): > 20 µM
EC50 (H1703; Table 2): > 20 µM

COc1cc(/C=C/C(=O)N2C(=O)C=CCC2c2ccccc2)cc(OC)c1OC (stereo not drawn) [compound 50]
EC50 (HeLa; Table 2): 6.8 µM
EC50 (H1703; Table 2): 3.6 µM

CC1=C(C(=O)N2CCC=CC2=O)Cc2ccccc21 [compound 42]
EC50 (HeLa; Homo sapiens, HeLa, Table 2): > 20 µM
EC50 (H1703; [1]): 12 µM

COc1cc(/C=C/C(=O)N2CCC=C(c3ccc(F)cc3)C2=O)cc(OC)c1OC [compound 20]
EC50 (HeLa; Homo sapiens, HeLa, Table 2): > 20 µM
EC50 (H1703; [1]): > 20 µM

COc1cc(/C=C/C(=O)N2CCC=C(C#Cc3ccccc3)C2=O)cc(OC)c1OC [compound 61]
EC50 (HeLa; Homo sapiens, HeLa, Table 2): 1.5 µM
EC50 (H1703; [1]): 0.5 µM

O=C1C=CCCN1C(=O)CCC(=O)N1CCC=CC1=O [compound 77]
EC50 (HeLa; Homo sapiens, HeLa, Table 2): 15 µM
EC50 (H1703; [1]): 5.5 µM

COc1cc(/C=C/C(=O)N2CC(c3cccs3)C=CC2=O)cc(OC)c1OC (stereo not drawn) [compound 51]
EC50 (HeLa; Table 2): 15 µM
EC50 (H1703; Table 2): 6.5 µM

COc1cc(/C=C/C(=O)N2C(=O)C=CCC2C2CCCCC2)cc(OC)c1OC (stereo not drawn) [compound 11]
EC50 (HeLa; Homo sapiens, HeLa, Table 2): 7 µM
EC50 (H1703; [1]): 6 µM

COc1cc(/C=C/C(=O)N2CCC=C(C3CCCCC3)C2=O)cc(OC)c1OC [compound 44]
EC50 (HeLa; Homo sapiens, HeLa, Table 2): > 20 µM
EC50 (H1703; [1]): > 20 µM

COc1cc(/C=C/C(=O)N2C(=O)C=CCC2c2cccs2)cc(OC)c1OC (stereo not drawn) [compound 10]
EC50 (HeLa; Homo sapiens, HeLa, Table 2): 4 µM
EC50 (H1703; [1]): 2 µM

C/C(=C\C(=O)N1CCC=CC1=O)c1ccccc1 [compound 27]
EC50 (HeLa; Table 2): > 20 µM
EC50 (H1703; Table 2): 14 µM

COc1cc(/C=C/C(=O)N2CCC=C(I)C2=O)cc(OC)c1OC [compound 55]
EC50 (HeLa; Homo sapiens, HeLa, Table 2): > 20 µM
EC50 (H1703; [1]): 3 µM

COc1cc(/C=C/C(=O)N2CCC=CC2=O)cc(OC)c1OCCN(C)CCOc1c(OC)cc(/C=C/C(=O)N2CCC=CC2=O)cc1OC [compound 67]
EC50 (HeLa; Homo sapiens, HeLa, Table 2): 0.5 µM
EC50 (H1703; [1]): 0.2 µM

O=C1C=CCCN1C(=O)/C=C/c1ccc(/C=C/C(=O)N2CCC=CC2=O)cc1 [compound 78]
EC50 (HeLa; Homo sapiens, HeLa, Table 2): 0.78 µM
EC50 (H1703; [1]): 0.3 µM

O=C1C=CCCN1C(=O)c1cc2ccccc2s1 [compound 10]
EC50 (HeLa; Homo sapiens, HeLa, Table 1): > 20 µM
EC50 (H1703; [2]): 18 µM

COc1cc(CCC(=O)N2CCCCC2=O)cc(OC)c1OC [compound 65]
EC50 (HeLa; Homo sapiens, HeLa, Table 2): > 20 µM

O=C1C=CCCN1C(=O)/C=C/C(=O)N1CCC=CC1=O [compound 74]
EC50 (HeLa; Homo sapiens, HeLa, Table 2): 11 µM
EC50 (H1703; [1]): 2.3 µM

O=C1C=CCCN1S(=O)(=O)/C=C/c1ccccc1 [compound 16]
EC50 (HeLa; Homo sapiens, HeLa, Table 1): 4.1 µM
EC50 (H1703; [2]): 2.7 µM

COc1cc(/C=C(\C)C(=O)N2CCC=CC2=O)cc(OC)c1OC [compound 37]
EC50 (HeLa; Homo sapiens, HeLa, Table 2): 18 µM
EC50 (H1703; [1]): 4 µM

COc1cc(/C=C/C(=O)N2CCC=C(C#Cc3ccc(F)cc3)C2=O)cc(OC)c1OC [compound 68]
EC50 (HeLa; Homo sapiens, HeLa, Table 2): 0.9 µM
EC50 (H1703; [1]): 0.4 µM

COc1cc2c(c(OC)c1OC)CCC(C(=O)N1CCC=CC1=O)=C2 [compound 11]
EC50 (HeLa; Homo sapiens, HeLa, Table 1): > 20 µM
EC50 (H1703; [2]): 14 µM

COC1=CC(=O)N(C(=O)/C=C/c2cc(OC)c(OC)c(OC)c2)C1 [compound 19]
EC50 (HeLa; Homo sapiens, HeLa, Table 2): > 20 µM

COc1cc(/C=C/C(=O)N2C(=O)C=CCC2C2CCCC2)cc(OC)c1OC (stereo not drawn) [compound 12]
EC50 (HeLa; Homo sapiens, HeLa, Table 2): 6 µM
EC50 (H1703; [1]): 6 µM

O=C1C=CCCN1C(=O)c1ccc2ccccc2c1 [compound 22]
EC50 (HeLa; Homo sapiens, HeLa, Table 2): 20 µM
EC50 (H1703; [1]): 9 µM

COc1cc(/C=C/C(=O)N2CCC=C(C#CC(C)(C)C)C2=O)cc(OC)c1OC [compound 43]
EC50 (HeLa; Homo sapiens, HeLa, Table 2): 1.2 µM
EC50 (H1703; [1]): 0.7 µM

COc1cc(/C=C/C(=O)N2CCC=C(C#Cc3ccc(OC(F)(F)F)cc3)C2=O)cc(OC)c1OC [compound 48]
EC50 (HeLa; Homo sapiens, HeLa, Table 2): 3 µM
EC50 (H1703; [1]): 0.7 µM

COc1cc(/C=C/C(=O)N2C(=O)C=CCC2c2ccccc2)cc(OC)c1OC (stereo not drawn) [compound 14]
EC50 (HeLa; Homo sapiens, HeLa, Table 1): 6.8 µM
EC50 (H1703; [2]): 3.6 µM

COc1cc(/C=C/C(=O)N2C(=O)C=CCC2c2cccnc2)cc(OC)c1OC (stereo not drawn) [compound 8]
EC50 (HeLa; Homo sapiens, HeLa, Table 2): 6 µM
EC50 (H1703; [1]): 3 µM

COc1cc(/C=C/C(=O)N2CCC(C)=CC2=O)cc(OC)c1OC [compound 26]
EC50 (HeLa; Table 2): > 20 µM
EC50 (H1703; Table 2): > 20 µM

COc1cc(/C=C/C(=O)N2CCC=C(c3cccnc3)C2=O)cc(OC)c1OC [compound 24]
EC50 (HeLa; Homo sapiens, HeLa, Table 2): > 20 µM
EC50 (H1703; [1]): > 20 µM

O=C1C=CCCN1C(=O)/C=C/c1ccccc1Cl [compound 13]
EC50 (HeLa; Homo sapiens, HeLa, Table 1): 7.5 µM
EC50 (H1703; [2]): 4 µM

O=C1C=CCCN1C(=O)/C=C/c1cccc(Br)c1 [compound 62]
EC50 (HeLa; Homo sapiens, HeLa, Table 2): 7 µM
EC50 (H1703; [1]): 5 µM

O=C1C=CCCN1C(=O)c1cc2ccccc2o1 [compound 15]
EC50 (HeLa; Homo sapiens, HeLa, Table 2): 20 µM
EC50 (H1703; [1]): 10 µM

COc1cc(/C=C/C(=O)N2CCC=C(c3ccccc3)C2=O)cc(OC)c1OC [compound 54]
EC50 (HeLa; Table 2): > 20 µM
EC50 (H1703; Table 2): > 20 µM

COc1cc(/C=C/C(=O)N2CCC=C(C#CC3CCCCC3)C2=O)cc(OC)c1OC [compound 59]
EC50 (HeLa; Homo sapiens, HeLa, Table 2): 3 µM
EC50 (H1703; [1]): 1.5 µM

CCC1=C(C)CN(C(=O)/C=C/c2cc(OC)c(OC)c(OC)c2)C1=O [compound 21]
EC50 (HeLa; Homo sapiens, HeLa, Table 2): > 20 µM
EC50 (H1703; [1]): > 20 µM

COc1cc(/C=C/C(=O)N2CCC=C(C#Cc3cccc(Cl)c3)C2=O)cc(OC)c1OC [compound 40]
EC50 (HeLa; Homo sapiens, HeLa, Table 2): 5 µM
EC50 (H1703; [1]): 1.5 µM

COC(=O)CSC1CCN(C(=O)/C=C/c2cc(OC)c(OC)c(OC)c2)C(=O)C1 (stereo not drawn) [Cpd. 7]
EC50 (HeLa; Homo sapiens, HeLa, Table 1): > 20 µM
EC50 (H1703; [2]): 7.9 µM

COc1cc(/C=C/C(=O)N2CCC=C(c3ccc(Oc4ccccc4)cc3)C2=O)cc(OC)c1OC [compound 71]
EC50 (HeLa; Homo sapiens, HeLa, Table 2): > 20 µM
EC50 (H1703; [1]): > 20 µM

O=C1C=CCCN1C(=O)/C(F)=C/c1ccccc1 [compound 70]
EC50 (HeLa; Homo sapiens, HeLa, Table 2): > 20 µM
EC50 (H1703; [1]): 10 µM

COc1cc(/C=C/C(=O)N2CCC=CC2=O)cc(OC)c1OCCN(C)C [compound 32]
EC50 (HeLa; Homo sapiens, HeLa, Table 2): 4 µM
EC50 (H1703; [1]): 1.5 µM

COc1cc(/C=C/C(=O)N2CCC=C(C#CCc3ccccc3)C2=O)cc(OC)c1OC [compound 63]
EC50 (HeLa; Homo sapiens, HeLa, Table 2): 10 µM
EC50 (H1703; [1]): 2 µM

COc1cc(/C=C/C(=O)N2CCC=C(c3ccc(C)cc3)C2=O)cc(OC)c1OC [compound 66]
EC50 (HeLa; Homo sapiens, HeLa, Table 2): > 20 µM

COc1cc(/C=C/C(=O)N2CCC(C)=C(C)C2=O)cc(OC)c1OC [compound 47]
EC50 (HeLa; Homo sapiens, HeLa, Table 2): > 20 µM
EC50 (H1703; [1]): > 20 µM

COc1cc(/C=C/C(=O)N2CC(c3cccs3)C=CC2=O)cc(OC)c1OC (stereo not drawn) [compound 15]
EC50 (HeLa; Homo sapiens, HeLa, Table 1): 15 µM
EC50 (H1703; [2]): 6.5 µM

COc1cc(/C=C/C(=O)N2CC=CCC2=O)cc(OC)c1OC [compound 46]
EC50 (HeLa; Homo sapiens, HeLa, Table 2): > 20 µM
EC50 (H1703; [1]): 13 µM

COc1cc(/C=C/C(=O)N2CCC=C(c3ccccc3)C2=O)cc(OC)c1OC [compound 18]
EC50 (HeLa; Homo sapiens, HeLa, Table 1): > 20 µM
EC50 (H1703; [2]): > 20 µM

C=C(C)C(=O)N1CCC=CC1=O [compound 73]
EC50 (HeLa; Homo sapiens, HeLa, Table 2): 19 µM
EC50 (H1703; [1]): 4.7 µM

CCCCC#CC1=CCCN(C(=O)/C=C/c2cc(OC)c(OC)c(OC)c2)C1=O [compound 31]
EC50 (HeLa; Homo sapiens, HeLa, Table 2): 2 µM
EC50 (H1703; [1]): 0.9 µM

COc1cc(/C=C/C(=O)N2CCC(C)=CC2=O)cc(OC)c1OC [compound 8]
EC50 (HeLa; Homo sapiens, HeLa, Table 1): > 20 µM
EC50 (H1703; [2]): > 20 µM

O=C1C=CCCN1C(=O)/C=C/c1cccc(C(F)(F)F)c1 [compound 18]
EC50 (HeLa; Homo sapiens, HeLa, Table 2): 6 µM
EC50 (H1703; [1]): 5 µM

C=C(C)C(=O)NC(=O)/C=C/C [Cpd. 76, (E)-N-methacryloylbut-2-enamide]
EC50 (HeLa; Homo sapiens, HeLa, Table 2): > 20 µM
EC50 (H1703; [1]): 8 µM

COc1cc(/C=C/C(=O)N2CCC=C(C#CC3(O)CCCCC3)C2=O)cc(OC)c1OC [compound 36]
EC50 (HeLa; Homo sapiens, HeLa, Table 2): 1.5 µM
EC50 (H1703; [1]): 0.5 µM
